One data set has as its system rat C6 glioma cells. The data set can be described thus: GDNF production promoting action in rat C6 glioma cells (ELISA of culture supernatant). Format: cell-based. Particulars: concentration which causes 50% increase of GDNF relative to the control group, cultured 2 days with test compound, GDNF in culture supernatant by ELISA. The procedure:
Using rat C6 glioma cells, the GDNF production promoting action of the compound of the present invention was evaluated.
Rat C6 glioma cells (ATCC) were grown in Dulbecco's Modified Eagle's Medium (DMEM) containing 10% FBS (Fetal Bovine Serum) in a collagen type 1 coated 75 cm^2 culture flask (SUMITOMO BAKELITE Co., Ltd.) until near confluent, detached by trypsin treatment and washed once with DMEM containing 10% FBS.
The cells after washing were diluted with 10% FBS-containing DMEM to a concentration of 5×10^4/mL and seeded at 0.3 mL/well in each well of collagen type 1 coated 48 well culture dish (SUMITOMO BAKELITE Co., Ltd.). After 3 days, the culture in the culture dish was placed in a 1% BSA (bovine serum albumin, Sigma)-containing DMEM medium supplemented with various concentrations of test compound, and further cultured for 2 days. The culture supernatant was recovered and preserved at −80° C. until measurement of GDNF.
The content of GDNF in the culture supernatant was measured by the following ELISA Method.
Anti-GDNF antibody (MAB212, R&D) was diluted with TBS (Tris buffered physiological saline: 25 mmol/L Tris-HCl (pH 8.0), 150 mmol/L NaCl) to 2 μg/mL and dispensed at 0.1 mL/well to each well of a 96-well immunoplate. The 96-well immunoplate was incubated overnight at 4° C. and washed once with TBS containing Tween 20 at 0.05% (hereinafter to be abbreviated as TBST). A blocking solution (TBS containing 1% BSA and 5% sucrose) was added at 0.2 mL/well to each well after washing, and the plate was incubated at room temperature for 1 hr., after which each well was washed twice with TBST. The culture supernatant (0.1 mL) of the aforementioned C6 cells was added to each well after washing and the plate was incubated at room temperature for 3 hrs., after which the wells were washed 5 times with TBST. The 500-fold diluted anti-GDNF antibody (G2791, Promega) was added by 0.1 mL to each well after washing, incubated at room temperature for 2 hrs. and washed 5 times with TBST. A 5000-fold diluted horseradish peroxidase-labeled anti-chicken IgY antibody (G1351, Promega) was added at 0.1 mL/well to each well after washing, incubated at room temperature for 2 hrs. and washed 5 times with TBST. A substrate solution (TMB substrate solution, BIO-RAD) was added at 0.1 mL/well to each well after washing and allowed to develop color at room temperature for 8 min. To stop the reaction, 0.1 mL of 1 mol/L phosphoric acid was added to each well in coloring developing reaction. The absorbance of the reaction solution at 450 nm wavelength was measured.
In the same manner as above except the test compound was not used, the ELISA Method was performed and this was used as a control group.
Using various concentrations of GDNF (Promega), ELISA Method was performed in the same manner as above and standard line was prepared.
From the aforementioned absorbance and standard line, GDNF content in a sample was calculated and the concentration (EC50), which causes 50% increase of GDNF relative to the control group was calculated from the regression line.

[1] abbreviates: Rattus norvegicus, C6 glioma, 48 h.

`CCCCC1(CC)COP(=O)(Cc2ccc(NC(=O)/C=C/c3cnn(C)c3-c3ccc(F)cc3)cc2)OC1` (stereo not shown) [Example 27, (2E)-N-{4-[(5-Butyl-5-ethyl-2-oxide-1,3,2-dioxaphosphinan-2-yl)methyl]phenyl}-3-[5-(4-fluorophenyl)-1-methyl-1H-pyrazol-4-yl]acrylamide] came in with an EC50 in the data set on rat C6 glioma cells of 0.5 µM.
With `CCOP(=O)(Cc1ccc(NC(=O)/C=C/c2cnn(C)c2-c2ccccc2)cc1)OCC` [Example 11, (2E)-N-[4-(Diethylphosphonomethyl)phenyl]-3-(1-methyl-5-phenyl-1H-pyrazol-4-yl)acrylamide], the melting point is 239 to 240 °C. The compound also registered an EC50 in the data set on rat C6 glioma cells (setting [1]) of 0.9 µM.
Taken in the same sequence, the figures for `CCOP(=O)(Cc1ccc(NC(=O)/C=C/c2cnn(C)c2-c2ccoc2)cc1)OCC` [Example 147, Diethyl 4-[{(2E)-3-[5-(3-furyl)-1-methyl-1H-pyrazol-4-yl]prop-2-enoyl)amino]benzylphosphonate] were 208 to 210 °C and 0.46 µM.
Taken in the same sequence, the figures for `CCOP(=O)(Cc1ccc(NC(=O)/C=C/c2snnc2-c2ccc(F)cc2)cc1)OCC` [Example 71, (2E)-N-[4-(Diethylphosphonomethyl)phenyl]-3-[4-(4-fluorophenyl)-1,2,3-thiadiazol-5-yl]acrylamide] were 173 to 175 °C and 1.7 µM.
On the same counts, the results for `CCOP(=O)(Cc1ccc(NC(=O)/C=C/c2cncn2-c2ccc(F)cc2)cc1)OCC` [Example 61, (2E)-N-[4-(Diethylphosphonomethyl)phenyl]-3-[1-(4-fluorophenyl)-1H-imidazol-5-yl]acrylamide] are 165 to 166 °C and 0.4 µM.
The compound `CCCC(=O)NCc1ccc(NC(=O)/C=C/c2cnn(C)c2-c2ccc(F)cc2)cc1` [Example 140, (2E)-N-{4-[(Butyrylamino)methyl]phenyl}-3-[5-(4-fluorophenyl)-1-methyl-1H-pyrazol-4-yl]acrylamide] showed a melting point of 259 to 260 °C. In the data set with rat C6 glioma cells (setting [1]), this compound gave an EC50 of 0.22 µM.
Regarding “(2E)-3-[5-(4-Fluorophenyl)-1-methyl-1H-pyrazol-4-yl]-N-[4-(1-pyrrolidinylmethyl) phenyl]acrylamide [Example 193]”, the EC50 in the data set on rat C6 glioma cells was 0.16 µM.
Consider `Cc1nccn1Cc1ccc(NC(=O)/C=C/c2cnn(C)c2-c2ccc(F)cc2)cc1` [Example 190, (2E)-3-[5-(4-Fluorophenyl)-1-methyl-1H-pyrazol-4-yl]-N-{4-[(2-methyl-1H-imidazol-1-yl)methyl]phenyl}acrylamide], for which the melting point lay in the range of 232 to 233 °C. The compound also displayed an EC50 in the data set with rat C6 glioma cells (setting [1]) of 0.59 µM.
Taken in the same sequence, the figures for `Cn1ncc(/C=C/C(=O)Nc2ccc(CCc3cscn3)cc2)c1-c1ccc(F)cc1` [Example 91, (2E)-3-[5-(4-Fluorophenyl)-1-methyl-1H-pyrazol-4-yl]-N-{4-[2-(1,3-thiazol-4-yl)ethyl]phenyl}acrylamide] were 211 to 212 °C and 0.49 µM.
For `COP(=O)(Cc1ccc(NC(=O)/C=C/c2cnn(C)c2-c2ccc(F)cc2)cc1)OC` [Example 1, (2E)-N-[4-(dimethylphosphonomethyl)phenyl]-3-[5-(4-fluorophenyl)-1-methyl-1H-pyrazol-4-yl]acrylamide], the melting point fell in the range of 209 to 210 °C. The compound also had an EC50 in the data set on rat C6 glioma cells (setting [1]) of 0.2 µM.
Taken in the same sequence, the figures for `CCOP(=O)(Cc1ccc(NC(=O)/C=C/c2cnn(C)c2-c2ccc(Cl)cc2)cc1)OCC` [Example 9, (2E)-3-[5-(4-Chlorophenyl)-1-methyl-1H-pyrazol-4-yl]-N-[4-(diethylphosphonomethyl)phenyl]acrylamide] were 217 to 218 °C and 2.5 µM.
`Cc1cccc(C(O)c2ccc(NC(=O)/C=C/c3cnn(C)c3-c3ccc(F)cc3)cc2)n1` (stereo not shown) [Example 50, (2E)-3-[5-(4-Fluorophenyl)-1-methyl-1H-pyrazol-4-yl]-N-{4-[hydroxy(6-methyl-2-pyridinyl)methyl]phenyl}acrylamide]: the EC50 with rat C6 glioma cells (setting [1]) came out at 0.4 µM.
In turn, `CCOP(=O)(Cc1ccc(NC(=O)/C=C/c2cnn(C)c2-c2ccc(OC)cc2)cc1)OCC` [Example 5, (2E)-N-[4-(Diethylphosphonomethyl)phenyl]-3-[5-(4-methoxyphenyl)-1-methyl-1H-pyrazol-4-yl]acrylamide] displayed a melting point of 199 to 200 °C. Moreover, in the data set with rat C6 glioma cells (setting [1]), the EC50 was 1 µM.
Compound `Cn1ncc(/C=C/C(=O)Nc2ccc(-n3ccnc3)cc2)c1-c1ccc(F)cc1` [Example 195] registered an EC50 in the data set on rat C6 glioma cells of 0.12 µM.
For `Cn1ncc(/C=C/C(=O)Nc2ccc(Cc3nccs3)cc2)c1-c1ccc(F)cc1` [Example 128, (2E)-3-[5-(4-Fluorophenyl)-1-methyl-1H-pyrazol-4-yl]-N-{4-[(1,3-thiazol-2-yl)methyl]phenyl}acrylamide], the melting point is 209 to 210 °C.
Still for that read-out and setting: in the case of `CCc1nc(Cc2ccc(NC(=O)/C=C/c3cnn(C)c3-c3ccc(F)cc3)cc2)no1` [Example 118, (2E)-N-{4-[(5-Ethyl-1,2,4-oxadiazol-3-yl)methyl]phenyl}-3-[5-(4-fluorophenyl)-1-methyl-1H-pyrazol-4-yl]acrylamide] it was 150 to 152 °C; in that of `Cn1ncc(/C=C/C(=O)Nc2ccc(Cn3cc4ccccc4n3)cc2)c1-c1ccc(F)cc1` [Example 178, (2E)-3-[5-(4-Fluorophenyl)-1-methyl-1H-pyrazol-4-yl]-N-[4-(2H-indazol-2-ylmethyl)phenyl]acrylamide], 231 to 232 °C.
The same measure, in the same setting: in the case of `Cn1nnc(Cc2ccc(NC(=O)/C=C/c3cnn(C)c3-c3ccc(F)cc3)cc2)n1` [Example 102, (2E)-3-[5-(4-Fluorophenyl)-1-methyl-1H-pyrazol-4-yl]-N-{4-[(2-methyl-2H-tetrazol-5-yl)methyl]phenyl}acrylamide] it was 159 to 161 °C.
Compound `COP(=O)(Cc1ccc(NC(=O)/C=C/c2cnn(C)c2-c2ccc(Br)cc2)cc1)OC` yielded a melting point of 212 to 214 °C.
On the same count and under the same terms, then `CC(=O)c1ccc(NC(=O)/C=C/c2cnn(C)c2-c2ccc(F)cc2)cc1` [Example 165, (2E)-N-(4-Acetylphenyl)-3-[5-(4-fluorophenyl)-1-methyl-1H-pyrazol-4-yl)acrylamide], with 204 to 205 °C.
In turn, `Cn1ncc(/C=C/C(=O)Nc2ccc(Cc3nc(C(N)=O)cs3)cc2)c1-c1ccc(F)cc1` [Example 132, 2-[4-({(2E)-3-[5-(4-fluorophenyl)-1-methyl-1H-pyrazol-4-yl]prop-2-enoyl}amino)benzyl]-1,3-thiazole-4-carboxamide] had a melting point of 159 to 160 °C.
The compound `Cn1ncc(/C=C/C(=O)Nc2cccc(CO)c2)c1-c1ccc(F)cc1` [Example 169, (2E)-3-[5-(4-Fluorophenyl)-1-methyl-1H-pyrazol-4-yl]-N-[3-(hydroxymethyl)phenyl)acrylamide] gave a melting point of 130 to 132 °C.
The same measure, in the same setting: then `CCOP(=O)(Cc1ccc(NC(=O)/C=C/c2cn(C)nc2-c2ccc(F)cc2)cc1)OCC`, with 197 to 198 °C.
In turn, `COP(=O)(Cc1ccc(NC(=O)/C=C/c2cncn2-c2ccc(F)cc2)cc1)OC` had a melting point of 108 to 109 °C.
Same read-out and setting: then `Cn1ncc(/C=C/C(=O)Nc2ccc(OCc3nnco3)cc2)c1-c1ccc(F)cc1` [Example 94, (2E)-3-[5-(4-Fluorophenyl)-1-methyl-1H-pyrazol-4-yl]-N-[4-(1,3,4-oxadiazol-2-ylmethoxy)phenyl]acrylamide], with 154 to 155 °C.
Take `COP(=O)(Cc1ccc(NC(=O)/C=C/c2cnn(C)c2-c2ccc(Cl)cc2)cc1)OC`: the melting point lay within 209 to 210 °C.
`Cc1nc(Cc2ccc(NC(=O)/C=C/c3cnn(C)c3-c3ccc(F)cc3)cc2)sc1C` [Example 123, (2E)-N-{4-[(4,5-Dimethyl-1,3-thiazol-2-yl)methyl]phenyl}-3-{5-(4-fluorophenyl)-1-methyl-1H-pyrazol-4-yl}acrylamide] displayed a melting point of 210 to 211 °C.

The record behind these values is patent US7423159B2, “Agent for preventing or treating neuropathy” (Takeda Pharmaceutical Company Limited, priority 2002, dated 2008).
